Experimental data: US8742156B2 (priority 2010, dated 2014)
Where a name gives a salt, the structure may show the parent alone. Read-outs that look alike come from different tables or passages of the source.

Key:
[1] = tested on: MDCK cells; assay: Cell Viability Test (MTT); format: cell-based, canine; conditions: 50 uM, 72 hours
Protocol: This compound was obtained from the National Cancer Institute, USA. Cell Viability Test: MDCK cells were seeded at 2×10^6/ml in a 96-well plate for 16-24 hours. Compound 58 (50 uM) was added to the cells. DMSO was added to the cells as a control. Cells were incubated at 37° C. and 5% CO2 for 72 hours, and then Thiazolyl Blue Tetrazolium Bromide (MTT) was added to a final concentration of 0.1 mg/ml. After two hours, the culture supernatant was removed and each well was replenished with isopropanol. The MTT metabolic product, formazan, was dissolved in isopropanol for five minutes with shaking. The optical densities of formazan and background were measured at 560 nm and 670 nm, respectively.

[2] = tested on: H1N1 virus (A/HK/54/98 (Tamiflu-sensitive strain)); assay: Viral infection of MDCK cells, TCID50 viral titer, H1N1 (Tamiflu-sensitive); format: cell-based, Human influenza H1N1 virus; conditions: for TCID50/ml H1N1 virus: m.o.i of 2, supernatant 48-hour post-infection; for viral titers of Tamiflu-sensitive (Tami-S) H1N1 virus decreased (fold): FIG. 1, multiplicity of infection of 0.2, 48-hour post-infection
[3] = tested on: H9N2 (A/Quail/HK/G1/97); format: cell-based, influenza H9N2 virus; conditions: for TCID50/ml H9N2 virus: m.o.i of 2, supernatant 48-hour post-infection
[4] = tested on: H3N2 (A/H3N2/1174/99); assay: Viral infection of MDCK cells, TCID50 viral titer, H3N2; format: cell-based, influenza H3N2 virus; conditions: for TCID50/ml H3N2 virus: m.o.i of 2, supernatant 48-hour post-infection

Compound | cytotoxicity in MDCK cells compared with DMSO [1] | Cytotoxicity index ([1]; MDCK cells, MTT, relative to DMSO (1.0)) | TCID50/ml H1N1 virus ([2]; 10 μM) | TCID50/ml H1N1 virus ([2]; 20 μM) | TCID50/ml H1N1 virus ([2]; 50 μM) | inhibitory effects against Tami-S H1N1 virus ([2]; FIG. 1, multiplicity of infection of 0.2) | viral titers of Tamiflu-sensitive (Tami-S) H1N1 virus decreased (fold) [2] [fold] | inhibition of replication of H1N1 virus ([2]; TCID50 results, Table 1A) | TCID50/ml H9N2 virus ([3]; 10 μM) | TCID50/ml H9N2 virus ([3]; 20 μM) | TCID50/ml H9N2 virus ([3]; 50 μM) | inhibition of replication of H9N2 virus ([3]; TCID50 results, Table 1A) | TCID50/ml H3N2 virus ([4]; 10 μM) | TCID50/ml H3N2 virus ([4]; 20 μM) | TCID50/ml H3N2 virus ([4]; 50 μM) | inhibition of replication of H3N2 virus ([4]; TCID50 results, Table 1A) | TCID50/ml H1N1 virus ([2]; 100 μM) | virus level suppressed (fold) ([2]; H1N1 tamiflu-sensitive, Table 1B (100 μM))
N=C(Nc1ccccc1)SCCCSC(=N)Nc1ccccc1 [Compound 58, Carbamimidothioic acid, phenyl-, 1,3-propanediyl ester, dihydrobromide] | does not display cytotoxicity | 0.916 | 2.90 × 10^4 TCID50/ml | 1.82 × 10^4 TCID50/ml | 4.53 × 10^2 TCID50/ml | potent inhibitory effects | 5 | inhibits the replication | 1.14 × 10^3 TCID50/ml | 4.16 × 10^2 TCID50/ml | 1.90 × 10^2 TCID50/ml | inhibits the replication | 4.61 × 10^4 TCID50/ml | 1.72 × 10^4 TCID50/ml | 7.24 × 10^3 TCID50/ml | inhibits the replication |  | 
O=C(Nc1ccc(Nc2ccncc2)cc1)c1ccc(Nc2ccnc3ccccc23)cc1[N+](=O)[O-] [Compound 73, 2-nitro-N-[4-(pyridin-4-ylamino)phenyl]-4-(quinolin-4-ylamino)benzamide] |  |  |  |  |  |  |  |  |  |  |  |  |  |  |  |  | 2.28 × 10^3 TCID50/ml | around 10 fold
CCOC(=O)C1=C[C@@H](OC(CC)CC)[C@H](NC(C)=O)[C@@H](N)C1 [Tamiflu, oseltamivir, reference compound] |  |  |  |  | 1.45 × 10^4 TCID50/ml |  | 8 |  |  |  | 9.00 × 10^1 TCID50/ml |  |  |  | 7.24 × 10^3 TCID50/ml |  | 1.52 × 10^3 TCID50/ml | 
